Measurements published in PubChem BioAssay (NCI).
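A five-concentration, 48-hour dose response in 96-well plates underlies each endpoint, interpolated linearly between surrounding concentrations. GI50 marks 50% less growth. TGI: concentration producing complete growth inhibition.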

Tests used:
Assay in all cases: growth of human tumour cells (NCI), 48 h
PC-3 prostate = tested on: PC-3 prostate
SW-620 colon = tested on: SW-620 colon
SF-539 CNS = tested on: SF-539 CNS
OVCAR-8 ovarian = tested on: OVCAR-8 ovarian
HCT-15 colon = tested on: HCT-15 colon
K-562 leukemia = tested on: K-562 leukemia
HS 578T breast = tested on: HS 578T breast
SK-MEL-5 melanoma = tested on: SK-MEL-5 melanoma
HT29 colon = tested on: HT29 colon
NCI-H23 lung = tested on: NCI-H23 lung
COLO 205 colon = tested on: COLO 205 colon
MDA-MB-435 = tested on: MDA-MB-435
SK-OV-3 ovarian = tested on: SK-OV-3 ovarian
OVCAR-5 ovarian = tested on: OVCAR-5 ovarian
HL-60(TB) leukemia = tested on: HL-60(TB) leukemia
EKVX NSCLC = tested on: EKVX NSCLC
SN12C renal = tested on: SN12C renal
MCF7 breast = tested on: MCF7 breast
A549 NSCLC = tested on: A549 NSCLC
NCI-H460 lung = tested on: NCI-H460 lung
A498 renal = tested on: A498 renal
OVCAR-3 ovarian = tested on: OVCAR-3 ovarian
KM12 colon = tested on: KM12 colon
786-0 renal = tested on: 786-0 renal
UACC-257 melanoma = tested on: UACC-257 melanoma
MDA-MB-231 breast = tested on: MDA-MB-231 breast
HOP-62 NSCLC = tested on: HOP-62 NSCLC
DU-145 prostate = tested on: DU-145 prostate
SNB-75 CNS = tested on: SNB-75 CNS
RXF 393 renal = tested on: RXF 393 renal
T-47D breast = tested on: T-47D breast
IGROV1 ovarian = tested on: IGROV1 ovarian
SK-MEL-28 melanoma = tested on: SK-MEL-28 melanoma
RPMI-8226 leukemia = tested on: RPMI-8226 leukemia
SK-MEL-2 melanoma = tested on: SK-MEL-2 melanoma
CCRF-CEM leukemia = tested on: CCRF-CEM leukemia
HCC-2998 colon = tested on: HCC-2998 colon
M14 melanoma = tested on: M14 melanoma
SR leukemia = tested on: SR leukemia
NCI-H226 lung = tested on: NCI-H226 lung
UACC-62 melanoma = tested on: UACC-62 melanoma
NCI-H522 lung = tested on: NCI-H522 lung
SF-268 CNS = tested on: SF-268 CNS
CAKI-1 renal = tested on: CAKI-1 renal
SF-295 CNS = tested on: SF-295 CNS
LOX IMVI melanoma = tested on: LOX IMVI melanoma
HOP-92 NSCLC = tested on: HOP-92 NSCLC
SNB-19 CNS = tested on: SNB-19 CNS
TK-10 renal = tested on: TK-10 renal
U251 CNS = tested on: U251 CNS
NCI/ADR-RES ovarian = tested on: NCI/ADR-RES ovarian
ACHN renal = tested on: ACHN renal
MALME-3M melanoma = tested on: MALME-3M melanoma
UO-31 renal = tested on: UO-31 renal
MOLT-4 leukemia = tested on: MOLT-4 leukemia
OVCAR-4 ovarian = tested on: OVCAR-4 ovarian
HCT-116 colon = tested on: HCT-116 colon
BT-549 breast = tested on: BT-549 breast

With CC(=O)OCC1OC(n2c(-c3cccs3)c3c(c(C#N)c2=S)-c2ccccc2CC3)C(OC(C)=O)C(OC(C)=O)C1OC(C)=O (centres undefined) the TGI (PC-3 prostate) was > 65.3 µM, the TGI (SW-620 colon) was > 63.4 µM and the TGI (SF-539 CNS) was > 49.3 µM. The TGI (OVCAR-8 ovarian) was > 46.6 µM, the TGI (HCT-15 colon) was > 56.8 µM and the TGI (K-562 leukemia) was > 100 µM. It also gave a TGI (HS 578T breast) of 70.3 µM, a TGI (SK-MEL-5 melanoma) of 23 µM and a TGI (HT29 colon) of 27.2 µM. The TGI (NCI-H23 lung) was > 56.6 µM, the TGI (COLO 205 colon) was 32.9 µM and the TGI (MDA-MB-435) was 9.09 µM. For the same molecule, the TGI (SK-OV-3 ovarian) was > 100 µM, the TGI (OVCAR-5 ovarian) was > 100 µM and the TGI (HL-60(TB) leukemia) was > 28.1 µM. The TGI (EKVX NSCLC) was 70.9 µM, the TGI (SN12C renal) was > 100 µM and the TGI (MCF7 breast) was 49.2 µM. For the same molecule, the TGI (A549 NSCLC) was > 87.1 µM, the TGI (NCI-H460 lung) was > 45.8 µM and the TGI (A498 renal) was 40.9 µM. The TGI (OVCAR-3 ovarian) was 43.1 µM, the TGI (KM12 colon) was > 50.2 µM and the TGI (786-0 renal) was 58.5 µM. The TGI (UACC-257 melanoma) was > 55.4 µM, the TGI (MDA-MB-231 breast) was 87.9 µM and the TGI (HOP-62 NSCLC) was > 65.4 µM. For the same molecule, the TGI (DU-145 prostate) was > 100 µM, the TGI (SNB-75 CNS) was 26.7 µM and the TGI (RXF 393 renal) was 29.3 µM. The TGI (T-47D breast) was 42.8 µM, the TGI (IGROV1 ovarian) was > 75.1 µM and the TGI (SK-MEL-28 melanoma) was > 59.2 µM. For the same molecule, the TGI (RPMI-8226 leukemia) was 17 µM, the TGI (SK-MEL-2 melanoma) was 31.5 µM and the TGI (CCRF-CEM leukemia) was > 83.6 µM. For the same molecule, the TGI (HCC-2998 colon) was 33.5 µM, the TGI (M14 melanoma) was > 50.8 µM and the TGI (SR leukemia) was > 29.8 µM. For the same molecule, the TGI (NCI-H226 lung) was > 56.7 µM, the TGI (UACC-62 melanoma) was 43.1 µM and the TGI (NCI-H522 lung) was 34 µM. The TGI (SF-268 CNS) was > 64.4 µM, the TGI (CAKI-1 renal) was 64.7 µM and the TGI (SF-295 CNS) was > 55.8 µM. The TGI (LOX IMVI melanoma) was 22.5 µM, the TGI (HOP-92 NSCLC) was 29.9 µM and the TGI (SNB-19 CNS) was > 100 µM. The TGI (TK-10 renal) was > 30.2 µM, the TGI (U251 CNS) was > 53.8 µM and the TGI (NCI/ADR-RES ovarian) was > 70.8 µM. The TGI (ACHN renal) was > 64 µM, the TGI (MALME-3M melanoma) was > 51.8 µM and the TGI (UO-31 renal) was 20.6 µM. For the same molecule, the TGI (MOLT-4 leukemia) was > 37.7 µM, the TGI (OVCAR-4 ovarian) was > 95.7 µM and the TGI (HCT-116 colon) was > 50.4 µM. The TGI (BT-549 breast) was > 55.6 µM.
For CN1CCN(c2ccc3nc(-c4c5cccccc-5[nH]c4=O)[nH]c3c2)CC1, the GI50 (PC-3 prostate) was 17.4 µM, the TGI (PC-3 prostate) was > 100 µM and the GI50 (SW-620 colon) was 5.79 µM. For the same molecule, the TGI (SW-620 colon) was 43.7 µM, the GI50 (SF-539 CNS) was 10.1 µM and the TGI (SF-539 CNS) was 22.8 µM. For the same molecule, the GI50 (OVCAR-8 ovarian) was 11.3 µM, the TGI (OVCAR-8 ovarian) was > 72.2 µM and the GI50 (HCT-15 colon) was 11.5 µM. The TGI (HCT-15 colon) was 55.9 µM, the GI50 (K-562 leukemia) was 10.6 µM and the TGI (K-562 leukemia) was 53.4 µM. The GI50 (HS 578T breast) was 13 µM, the TGI (HS 578T breast) was > 100 µM and the GI50 (SK-MEL-5 melanoma) was 14.8 µM. For the same molecule, the TGI (SK-MEL-5 melanoma) was 28.3 µM, the GI50 (HT29 colon) was 8 µM and the TGI (HT29 colon) was 23.1 µM. It also gave a GI50 (NCI-H23 lung) of 13.9 µM, a TGI (NCI-H23 lung) of 51.7 µM and a GI50 (COLO 205 colon) of 8.39 µM. For the same molecule, the TGI (COLO 205 colon) was 22.2 µM, the GI50 (MDA-MB-435) was 14.3 µM and the TGI (MDA-MB-435) was 29.7 µM. For the same molecule, the GI50 (SK-OV-3 ovarian) was 9.43 µM, the TGI (SK-OV-3 ovarian) was 83.1 µM and the GI50 (OVCAR-5 ovarian) was 15.9 µM. For the same molecule, the TGI (OVCAR-5 ovarian) was 52.1 µM, the GI50 (HL-60(TB) leukemia) was 13.7 µM and the TGI (HL-60(TB) leukemia) was 33.5 µM. The GI50 (EKVX NSCLC) was 29.4 µM, the TGI (EKVX NSCLC) was > 100 µM and the GI50 (SN12C renal) was 5.37 µM. The TGI (SN12C renal) was > 80.9 µM, the GI50 (MCF7 breast) was 6.27 µM and the TGI (MCF7 breast) was 32.1 µM. For the same molecule, the GI50 (A549 NSCLC) was 7.58 µM, the TGI (A549 NSCLC) was > 59.3 µM and the GI50 (NCI-H460 lung) was 5.45 µM. For the same molecule, the TGI (NCI-H460 lung) was 27.2 µM, the GI50 (A498 renal) was 4.77 µM and the TGI (A498 renal) was 21.4 µM. The GI50 (OVCAR-3 ovarian) was 17.2 µM, the TGI (OVCAR-3 ovarian) was 58.2 µM and the GI50 (KM12 colon) was 0.266 µM. It also gave a TGI (KM12 colon) of 13.9 µM, a GI50 (786-0 renal) of 11.2 µM and a TGI (786-0 renal) of 46.6 µM. It also gave a GI50 (UACC-257 melanoma) of 17.6 µM, a TGI (UACC-257 melanoma) of 35.3 µM and a GI50 (MDA-MB-231 breast) of 11.8 µM. For the same molecule, the TGI (MDA-MB-231 breast) was 36.7 µM, the GI50 (HOP-62 NSCLC) was 10.5 µM and the TGI (HOP-62 NSCLC) was 54.7 µM. It also gave a GI50 (DU-145 prostate) of 9.67 µM, a TGI (DU-145 prostate) of 35.8 µM and a GI50 (SNB-75 CNS) of 7.64 µM. For the same molecule, the TGI (SNB-75 CNS) was > 45.2 µM, the GI50 (RXF 393 renal) was 3.39 µM and the TGI (RXF 393 renal) was 15.8 µM. The GI50 (T-47D breast) was 30.8 µM, the TGI (T-47D breast) was > 91.7 µM and the GI50 (IGROV1 ovarian) was 5.27 µM. For the same molecule, the TGI (IGROV1 ovarian) was 45.5 µM, the GI50 (SK-MEL-28 melanoma) was 15.6 µM and the TGI (SK-MEL-28 melanoma) was 30.3 µM. For the same molecule, the GI50 (RPMI-8226 leukemia) was 16.8 µM, the TGI (RPMI-8226 leukemia) was 62.4 µM and the GI50 (SK-MEL-2 melanoma) was 27.1 µM. The TGI (SK-MEL-2 melanoma) was > 66.9 µM, the GI50 (CCRF-CEM leukemia) was 10.1 µM and the TGI (CCRF-CEM leukemia) was > 84.1 µM. It also gave a GI50 (HCC-2998 colon) of 13.7 µM, a TGI (HCC-2998 colon) of 37 µM and a GI50 (M14 melanoma) of 13.3 µM. The TGI (M14 melanoma) was 27.8 µM, the GI50 (SR leukemia) was 12.7 µM and the TGI (SR leukemia) was 49.5 µM. For the same molecule, the GI50 (NCI-H226 lung) was 7.18 µM, the TGI (NCI-H226 lung) was 55.9 µM and the GI50 (UACC-62 melanoma) was 19.6 µM. For the same molecule, the TGI (UACC-62 melanoma) was 43.4 µM, the GI50 (NCI-H522 lung) was 15.6 µM and the TGI (NCI-H522 lung) was > 46.8 µM. For the same molecule, the GI50 (SF-268 CNS) was 11.9 µM, the TGI (SF-268 CNS) was 40.3 µM and the GI50 (CAKI-1 renal) was 7.29 µM. The TGI (CAKI-1 renal) was > 62.1 µM, the GI50 (SF-295 CNS) was 20.3 µM and the TGI (SF-295 CNS) was > 76.5 µM. The GI50 (LOX IMVI melanoma) was 7.78 µM, the TGI (LOX IMVI melanoma) was 22.4 µM and the GI50 (HOP-92 NSCLC) was 18 µM. For the same molecule, the TGI (HOP-92 NSCLC) was > 100 µM, the GI50 (SNB-19 CNS) was 12.3 µM and the TGI (SNB-19 CNS) was 71.6 µM. For the same molecule, the GI50 (TK-10 renal) was 27.9 µM, the TGI (TK-10 renal) was > 74.5 µM and the GI50 (U251 CNS) was 11.6 µM. The TGI (U251 CNS) was 41 µM, the GI50 (NCI/ADR-RES ovarian) was 23.4 µM and the TGI (NCI/ADR-RES ovarian) was 97.4 µM. It also gave a GI50 (ACHN renal) of 6.09 µM, a TGI (ACHN renal) of 60.9 µM and a GI50 (MALME-3M melanoma) of 14.6 µM. The TGI (MALME-3M melanoma) was 31 µM, the GI50 (UO-31 renal) was 3.53 µM and the TGI (UO-31 renal) was 52.9 µM. For the same molecule, the GI50 (MOLT-4 leukemia) was 3.49 µM, the TGI (MOLT-4 leukemia) was 22.3 µM and the GI50 (OVCAR-4 ovarian) was 13.9 µM. It also gave a TGI (OVCAR-4 ovarian) of 55.2 µM, a GI50 (HCT-116 colon) of 9.55 µM and a TGI (HCT-116 colon) of 25.5 µM. For the same molecule, the GI50 (BT-549 breast) was 13.4 µM and the TGI (BT-549 breast) was 66 µM.
